In US10899759B2, “Positive allosteric modulators of the muscarinic acetylcholine receptor M1” (Vanderbilt University, priority 2016, dated 2021):
pEC50: −log10 of the molar value.

Molecular target: T1, human mAChR M1 (Homo sapiens, UniProt P11229)
T1 construct: host or cells: CHO-K1
T1 sequence (P11229 1-460): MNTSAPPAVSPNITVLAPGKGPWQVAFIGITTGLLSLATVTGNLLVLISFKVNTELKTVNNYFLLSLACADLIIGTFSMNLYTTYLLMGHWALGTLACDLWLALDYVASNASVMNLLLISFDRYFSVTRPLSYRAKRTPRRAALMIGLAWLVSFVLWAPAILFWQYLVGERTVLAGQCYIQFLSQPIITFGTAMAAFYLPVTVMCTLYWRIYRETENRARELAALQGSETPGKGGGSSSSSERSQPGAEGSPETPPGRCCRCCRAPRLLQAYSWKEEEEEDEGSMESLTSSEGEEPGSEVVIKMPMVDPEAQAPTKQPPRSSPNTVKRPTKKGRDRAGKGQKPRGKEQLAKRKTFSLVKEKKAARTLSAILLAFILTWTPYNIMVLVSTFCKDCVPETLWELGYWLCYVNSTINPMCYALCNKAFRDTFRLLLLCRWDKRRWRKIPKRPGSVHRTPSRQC
Test: mAChR M1 cell-based functional assay (calcium mobilization, Fluo-4, FDSS)
Conditions: CHO-K1 cells stably expressing hM1; for Emax: EC20 acetylcholine response, read-out: Human M1 Emax; for pEC50: positive allosteric modulator activity as increase in the EC20 acetylcholine response
Summary of the method: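 CHO-K1 cells stably expressing muscarinic receptor, loaded with Fluo-4; 11-point 1:3 compound series added and calcium flux read over 300 s at 1 Hz. Agonism from direct calcium rise, PAM activity as potentiation of EC20 acetylcholine, antagonism as decrease of EC80 acetylcholine; four-parameter logistic fits.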

SMILES | Emax [%] | pEC50
Cn1ccc(-c2ccc(Cc3cc(C(=O)NC4CC(F)C4)nc4sccc34)cc2)n1 (centres unmarked) [Compound 97, N-(3-fluorocyclobutyl)-4-[[4-(1-methylpyrazol-3-yl)phenyl]methyl]thieno[2,3-b]pyridine-6-carboxamide] | 65.9 | 6.85
Cn1ccc(-c2ccc(Cc3cc(C(=O)NC4CC(F)(F)C4)nc4sccc34)cc2)n1 [Compound 98, N-(3,3-difluorocyclobutyl)-4-[[4-(1-methylpyrazol-3-yl)phenyl]methyl]thieno[2,3-b]pyridine-6-carboxamide] | 68.7 | 5.78
COCCNC(=O)c1cc(Cc2ccc(-c3ccn(C)n3)cc2)c2ccsc2n1 [Compound 99, N-(2-methoxyethyl)-4-[[4-(1-methylpyrazol-3-yl)phenyl]methyl]thieno[2,3-b]pyridine-6-carboxamide] | 62.8 | 5.48
COCC(C)NC(=O)c1cc(Cc2ccc(-c3ccn(C)n3)cc2)c2ccsc2n1 (centres unmarked) [Compound 100, N-(2-methoxy-1-methyl-ethyl)-4-[[4-(1-methylpyrazol-3-yl)phenyl]methyl]thieno[2,3-b]pyridine-6-carboxamide] | 63.5 | 6.32
Cn1ccc(-c2ccc(Cc3cc(C(=O)N[C@H]4CCCC[C@@H]4O)nc4sccc34)cn2)n1 [Compound 101, N-[(1S,2S)-2-hydroxycyclohexyl]-4-[[6-(1-methylpyrazol-3-yl)-3-pyridyl]methyl]thieno[2,3-b]pyridine-6-carboxamide] | 67.2 | 5.58
Cn1ccc(-c2ccc(Cc3cc(C(=O)NC4CCOCC4)nc4sccc34)cn2)n1 [Compound 102, 4-[[6-(1-methylpyrazol-3-yl)-3-pyridyl]methyl]-N-tetrahydropyran-4-yl-thieno[2,3-b]pyridine-6-carboxamide] | 37.9 | 7.70
Cn1ccc(-c2ccc(Cc3cc(C(=O)NC4CCOC(C)(C)C4)nc4sccc34)cn2)n1 (centres unmarked) [Compound 103, N-(2,2-dimethyltetrahydropyran-4-yl)-4-[[6-(1-methylpyrazol-3-yl)-3-pyridyl]methyl]thieno[2,3-b]pyridine-6-carboxamide] | 60.5 | 7.15
CC1CC(NC(=O)c2cc(Cc3ccc(-c4ccn(C)n4)nc3)c3ccsc3n2)CC(C)O1 (centres unmarked) [Compound 104, N-(2,6-dimethyltetrahydropyran-4-yl)-4-[[6-(1-methylpyrazol-3-yl)-3-pyridyl]methyl]thieno[2,3-b]pyridine-6-carboxamide] | 59.7 | 7.05
Cn1ccc(-c2ccc(Cc3cc(C(=O)NC4CCOCC4(C)C)nc4sccc34)cn2)n1 (centres unmarked) [Compound 105, N-(3,3-dimethyltetrahydropyran-4-yl)-4-[[6-(1-methylpyrazol-3-yl)-3-pyridyl]methyl]thieno[2,3-b]pyridine-6-carboxamide] | 63.5 | 6.43
CC1COCCC1NC(=O)c1cc(Cc2ccc(-c3ccn(C)n3)nc2)c2ccsc2n1 (centres unmarked) [Compound 106, 4-[[6-(1-methylpyrazol-3-yl)-3-pyridyl]methyl]-N-(3-methyltetrahydropyran-4-yl)thieno[2,3-b]pyridine-6-carboxamide] | 58.4 | 6.96
Cn1ccc(-c2ccc(Cc3cc(C(=O)NCC4CCOCC4)nc4sccc34)cn2)n1 [Compound 107, 4-[[6-(1-methylpyrazol-3-yl)-3-pyridyl]methyl]-N-(tetrahydropyran-4-ylmethyl)thieno[2,3-b]pyridine-6-carboxamide] | 57.3 | 7.05
Cn1ccc(-c2ccc(Cc3cc(C(=O)NCC4CCOC4)nc4sccc34)cn2)n1 (centres unmarked) [Compound 108, 4-[[6-(1-methylpyrazol-3-yl)-3-pyridyl]methyl]-N-(tetrahydrofuran-3-ylmethyl)thieno[2,3-b]pyridine-6-carboxamide] | 59.4 | 6.82
Cn1ccc(-c2ccc(Cc3cc(C(=O)NC4CC5(COC5)C4)nc4sccc34)cn2)n1 [Compound 109, 4-[[6-(1-methylpyrazol-3-yl)-3-pyridyl]methyl]-N-(2-oxaspiro[3.3]heptan-6-yl)thieno[2,3-b]pyridine-6-carboxamide] | 56.8 | 6.82
Cn1ccc(-c2ccc(Cc3cc(C(=O)NC4CC(F)C4)nc4sccc34)cn2)n1 (centres unmarked) [Compound 110, N-(3-fluorocyclobutyl)-4-[[6-(1-methylpyrazol-3-yl)-3-pyridyl]methyl]thieno[2,3-b]pyridine-6-carboxamide] | 58.4 | 7.22
COCCNC(=O)c1cc(Cc2ccc(-c3ccn(C)n3)nc2)c2ccsc2n1 [Compound 111, N-(2-methoxyethyl)-4-[[6-(1-methylpyrazol-3-yl)-3-pyridyl]methyl]thieno[2,3-b]pyridine-6-carboxamide] | 63.2 | 6.43
COCC(C)NC(=O)c1cc(Cc2ccc(-c3ccn(C)n3)nc2)c2ccsc2n1 (centres unmarked) [Compound 112, N-(2-methoxy-1-methyl-ethyl)-4-[[6-(1-methylpyrazol-3-yl)-3-pyridyl]methyl]thieno[2,3-b]pyridine-6-carboxamide] | 59.5 | 6.41
Cn1cc(-c2ccc(Cc3cc(C(=O)N[C@H]4CCCC[C@@H]4O)nc4sccc34)cn2)cn1 [Compound 113, N-[(1S,2S)-2-hydroxycyclohexyl]-4-[[6-(1-methylpyrazol-4-yl)-3-pyridyl]methyl]thieno[2,3-b]pyridine-6-carboxamide] | 60.5 | 6.09
Cn1cc(-c2ccc(Cc3cc(C(=O)NC4CCOCC4)nc4sccc34)cn2)cn1 [Compound 114, 4-[[6-(1-methylpyrazol-4-yl)-3-pyridyl]methyl]-N-tetrahydropyran-4-yl-thieno[2,3-b]pyridine-6-carboxamide] | 38.6 | 8.00
Cn1cc(-c2ccc(Cc3cc(C(=O)NC4CCOC(C)(C)C4)nc4sccc34)cn2)cn1 (centres unmarked) [Compound 115, N-(2,2-dimethyltetrahydropyran-4-yl)-4-[[6-(1-methylpyrazol-4-yl)-3-pyridyl]methyl]thieno[2,3-b]pyridine-6-carboxamide] | 59.7 | 7.30
CC1CC(NC(=O)c2cc(Cc3ccc(-c4cnn(C)c4)nc3)c3ccsc3n2)CC(C)O1 (centres unmarked) [Compound 116, N-(2,6-dimethyltetrahydropyran-4-yl)-4-[[6-(1-methylpyrazol-4-yl)-3-pyridyl]methyl]thieno[2,3-b]pyridine-6-carboxamide] | 54.8 | 7.30
Cn1cc(-c2ccc(Cc3cc(C(=O)NC4CCOCC4(C)C)nc4sccc34)cn2)cn1 (centres unmarked) [Compound 117, N-(3,3-dimethyltetrahydropyran-4-yl)-4-[[6-(1-methylpyrazol-4-yl)-3-pyridyl]methyl]thieno[2,3-b]pyridine-6-carboxamide] | 55.7 | 6.82
CC1COCCC1NC(=O)c1cc(Cc2ccc(-c3cnn(C)c3)nc2)c2ccsc2n1 (centres unmarked) [Compound 118, 4-[[6-(1-methylpyrazol-4-yl)-3-pyridyl]methyl]-N-(3-methyltetrahydropyran-4-yl)thieno[2,3-b]pyridine-6-carboxamide] | 52.2 | 7.15
Cn1cc(-c2ccc(Cc3cc(C(=O)NCC4CCOCC4)nc4sccc34)cn2)cn1 [Compound 119, 4-[[6-(1-methylpyrazol-4-yl)-3-pyridyl]methyl]-N-(tetrahydropyran-4-ylmethyl)thieno[2,3-b]pyridine-6-carboxamide] | 54.8 | 7.22
Cn1cc(-c2ccc(Cc3cc(C(=O)N[C@H]4CCOC4)nc4sccc34)cn2)cn1 [Compound 120, 4-[[6-(1-methylpyrazol-4-yl)-3-pyridyl]methyl]-N-[(3S)-tetrahydrofuran-3-yl]thieno[2,3-b]pyridine-6-carboxamide] | 56.9 | 7.10
Cn1cc(-c2ccc(Cc3cc(C(=O)N[C@@H]4CCOC4)nc4sccc34)cn2)cn1 [Compound 121, 4-[[6-(1-methylpyrazol-4-yl)-3-pyridyl]methyl]-N-[(3R)-tetrahydrofuran-3-yl]thieno[2,3-b]pyridine-6-carboxamide] | 58.9 | 6.26
Cn1cc(-c2ccc(Cc3cc(C(=O)NCC4CCOC4)nc4sccc34)cn2)cn1 (centres unmarked) [Compound 122, 4-[[6-(1-methylpyrazol-4-yl)-3-pyridyl]methyl]-N-(tetrahydrofuran-3-ylmethyl)thieno[2,3-b]pyridine-6-carboxamide] | 57.5 | 6.15
Cn1cc(-c2ccc(Cc3cc(C(=O)NC4CC5(COC5)C4)nc4sccc34)cn2)cn1 [Compound 123, 4-[[6-(1-methylpyrazol-4-yl)-3-pyridyl]methyl]-N-(2-oxaspiro[3.3]heptan-6-yl)thieno[2,3-b]pyridine-6-carboxamide] | 56.2 | 7.00
Cn1cc(-c2ccc(Cc3cc(C(=O)NC4COC4)nc4sccc34)cn2)cn1 [Compound 124, 4-[[6-(1-methylpyrazol-4-yl)-3-pyridyl]methyl]-N-(oxetan-3-yl)thieno[2,3-b]pyridine-6-carboxamide] | 53.5 | 7.40
